In PubChem BioAssay (NCI):
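Dose response: 5 concentrations. Exposure: 48 h. Format: 96-well plates. Endpoint: linear interpolation; highest concentration if not reached. TGI: concentration producing complete growth inhibition.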 Where a SMILES comes first, the peptide text is derived from it. The star is where a group is joined. Bn = c1ccc(C*)cc1

Columns and labels:
Test in all cases: NCI tumour cell line growth inhibition, 48 h
[1] = tested on: CAKI-1 renal
[2] = tested on: CCRF-CEM leukemia
[3] = tested on: HCC-2998 colon
[4] = tested on: MALME-3M melanoma
[5] = tested on: MDA-MB-435
[6] = tested on: MDA-N
[7] = tested on: MOLT-4 leukemia
[8] = tested on: RPMI-8226 leukemia
[9] = tested on: SF-539 CNS
[10] = tested on: UACC-62 melanoma

| Structure (SMILES) | TGI [1] [µM] | TGI [2] [µM] | TGI [3] [µM] | TGI [4] [µM] | TGI [5] [µM] | TGI [6] [µM] | TGI [7] [µM] | TGI [8] [µM] | TGI [9] [µM] | TGI [10] [µM] |
| --- | --- | --- | --- | --- | --- | --- | --- | --- | --- | --- |
| COc1cc(C=C2C(=O)NC(=S)NC2=O)cc(OC)c1OC | > 100 | > 100 | > 100 | > 100 | > 100 | > 100 | > 100 | > 100 | > 100 | > 100 |
| COC(=O)C(CC(C)C)NC(=O)C(N)Cc1ccc(OCc2ccccc2)cc1 (stereo not given) (H-Tyr(Bn)-Leu-OMe; configuration not given here) | > 10 | > 10 | > 10 | 6.62 | > 10 | > 10 | > 10 | > 10 | > 10 | > 10 |
| NS(=O)(=O)c1ccc(NC(NC(=O)C(C(F)(F)F)C(F)(F)F)(C(F)(F)F)C(F)(F)F)cc1 | > 100 | > 100 | > 100 | > 100 | > 100 | > 100 | > 100 | > 100 | > 100 | > 100 |
| N#CC(=N)c1ncn(-c2ccccc2N)c1N | > 100 | > 100 | > 100 | > 100 | > 100 | > 100 | > 100 | > 100 | > 100 | > 100 |
